Experiment [1] relates to DNB aptamer (RNA, aptamer) GGUGCCUUAUUCCGGACGCCGGGCCCGAAUGCUGCUACGGCAGUCGAAGACAACAUCGCGCCCUUCGGAGGCACC
Briefly: fluorescence increase titration. The conditions noted are these: 125 mM KCl, 5 mM MgCl2; 20 mM Hepes pH 7.4, 25°C; probe 100 nM.

For experiment [2], the system named is wt-DNB aptamer (RNA, aptamer) GGAGCUCAGCCUUCACUGCCUUAUUCCGGACGCCGGGCCCGAAUGCUGCUACGGCAGUCGAAGACAACAUCGCGCCCUUCGGAGGCACCACGGUCGGAUCCAC
Briefly: fluorescence increase titration. The conditions noted are these: 125 mM KCl, 5 mM MgCl2; 20 mM Hepes pH 7.4, 25°C; probe 100 nM.

Experiment [3] concerns clone 5 (RNA, aptamer) GGAGCUCAGCCUUCACUGCGGUUGCCCUCCGUGCUUCAUGCUUCCCUGCUUCGGCAGUCGCGGUAAACCGUAGAGAAAGUUGAGGCACCACGGUCGGAUCCAC
As to the kind of experiment: fluorescence increase titration. The conditions noted are these: 125 mM KCl, 5 mM MgCl2; 20 mM Hepes pH 7.4, 25°C; probe 1 µM.

The subject of experiment [4] is DNB aptamer (RNA, aptamer) GGUGCCUUAUUCCGGACGCCGGGCCCGAAUGCUGCUACGGCAGUCGAAGACAACAUCGCGCCCUUCGGAGGCACC
As to the kind of experiment: fluorescence competition. The conditions noted are these: 125 mM KCl, 5 mM MgCl2; 20 mM Hepes pH 7.4; displaces SR-DN (1 μM) from DNB (100 nM); calculated from IC50.

In general, KD refers to the concentration at which binding is half-saturated. With `CCN(CC)c1ccc2c(-c3ccc(S(=O)(=O)NCCOCCOCCNc4ccc([N+](=O)[O-])cc4[N+](=O)[O-])cc3S(=O)(=O)[O-])c3ccc(=[N+](CC)CC)cc-3oc2c1`, the dissociation constant KD in experiment [1] was 0.80 ± 0.10 µM; in experiment [2] it was 1.44 ± 0.08 µM; in experiment [3] it was 20.1 ± 3.9 µM.

In the case of `CN(C)c1ccc2c(-c3ccc(C(=O)NCCOCCOCCNc4ccc([N+](=O)[O-])cc4[N+](=O)[O-])cc3C(=O)[O-])c3ccc(=[N+](C)C)cc-3oc2c1`, the values for the KD in experiment [1] and in experiment [3] were 0.35 ± 0.05 µM and 7.77 ± 0.9 µM, respectively. `N=c1ccc2c(-c3ccc(C(=O)NCCOCCOCCNc4ccc([N+](=O)[O-])cc4[N+](=O)[O-])cc3C(=O)O)c3ccc(N)cc3oc-2c1` registered a dissociation constant (KD) in experiment [1] of 4.48 ± 0.60 µM. Consider `NCCOCCOCCNc1ccc([N+](=O)[O-])cc1[N+](=O)[O-]`, for which, in experiment [4], the KD was 0.1 ± 0.014 µM. For `O=C(NCCOCCOCCNc1ccc([N+](=O)[O-])cc1[N+](=O)[O-])c1ccc(-c2c3ccc(=O)cc-3oc3cc(O)ccc23)c(C(=O)O)c1`, the KD in experiment [1] turned out to be 8.55 ± 0.53 µM; in experiment [3] it was 27.2 ± 3.2 µM. For the molecule `O=[N+]([O-])c1ccc(NCCOCCOCCNS(=O)(=O)c2ccc(C3=c4cc5c6c(c4Oc4c3cc3c7c4CCCN7CCC3)CCC[N+]=6CCC5)c(S(=O)(=O)[O-])c2)c([N+](=O)[O-])c1`, the dissociation constant (KD) in experiment [1] was determined as 18.0 ± 1.8 µM; in experiment [3] it was 52.6 ± 17.8 µM.

The values above are taken from paper PMC4666381 (2015).
